Assay results reported in patent US9120774B2 (University of Kansas, priority 2009, dated 2015).
Like-named read-outs stand apart in the source and are kept apart here.

Tests used:
Assay type in all cases: cell-based
[1] = test system: SkBr3 (Her2 overexpressing breast cancer cells); assay: Anti-proliferation activity against SkBr3 cells (MTS/PMS)
Protocol: (§1) Upon completion of synthesis of library of compounds in Examples 23 and 24, the compounds were evaluated for anti-proliferative activity against SkBr3 (Her2 overexpressing breast cancer cells), MCF-7 (estrogen receptor positive breast cancer cells), HCT-116 (colon cancer cells characterized by wild-type p53), PL45 (pancreatic cancer cells), LNCaP (androgen sensitive prostate cancer cells) and PC-3 (androgen independent prostate cancer cells) cell lines.
(§2) Cells were maintained in a 1:1 mixture of Advanced DMEM/F12 (Gibco) supplemented with non-essential amino acids, L-glutamine (2 mM), streptomycin (500 ng/mL), penicillin (100 units/mL), and 10% FBS. Cells were grown to confluence in a humidified atmosphere (37° C., 5% CO2), seeded (2000/well, 100 μl) in 96-well plates, and allowed to attach overnight. Compound or GDA at varying concentrations in DMSO (1% DMSO final concentration) was added, and cells were returned to the incubator for 72 hours. At 72 hours, the number of viable cells was determined using an MTS/PMS cell proliferation kit (Promega) per the manufacturer's instructions. Cells incubated in 1% DMSO were used at 100% proliferation, and values were adjusted accordingly. IC50 values were calculated from separate experiments performed in triplicate using GraphPad Prism.
as §2, with “μg/mL),” for “ng/mL),”, “μL)” for “μl)”

[2] = test system: MCF-7 (estrogen receptor positive breast cancer cells); assay: Anti-proliferation activity against MCF-7 cells (MTS/PMS)
Protocol: as §1, §2
as §2, with “μg/mL),” for “ng/mL),”, “μL)” for “μl)”

[3] = test system: LNCaP (androgen sensitive prostate cancer cells); assay: Anti-proliferation activity against LNCaP cells; settings: Homo sapiens, LNCaP, 72 hours, MTS/PMS, mean ± standard deviation
Protocol: as §1, with “lines. […] The monosubstituted benzamide variants improved activity.” for “lines.”
as §2

[4] = test system: PC-3 (androgen independent prostate cancer cells); assay: Anti-proliferation activity against PC-3 cells; settings: for IC50: Homo sapiens
Protocol: as §1, with “lines. […] The monosubstituted benzamide variants improved activity.” for “lines.”
as §2, with “[…] […]” for “Compound or GDA at varying concentrations in DMSO (1% DMSO final concentration) was added, and cells were returned to the incubator for 72 hours. At 72 hours, the number of viable cells was determined using an MTS/PMS cell proliferation kit (Promega) per the manufacturer's instructions.”

[5] = Homo sapiens, SK-BR-3, Table 6, 72 hours, MTS/PMS, mean ± standard deviation, read-out: IC50 SKBr3
[6] = Homo sapiens, MCF7, Table 6, 72 hours, MTS/PMS, mean ± standard deviation, read-out: IC50 MCF-7
[7] = PC-3, Table 6, 72 hours, MTS/PMS, mean ± standard deviation, read-out: IC50 PC-3
[8] = Homo sapiens, SK-BR-3, Table 7, 72 hours, MTS/PMS, mean ± standard deviation, read-out: Anti-proliferation activity SkBr3
[9] = Homo sapiens, MCF7, Table 7, 72 hours, MTS/PMS, mean ± standard deviation, read-out: Anti-proliferation activity MCF-7
[10] = Table 7, read-out: Anti-proliferation activity LnCaP
[11] = PC-3, Table 7, 72 hours, MTS/PMS, mean ± standard deviation, read-out: Anti-proliferation activity PC-3
[12] = Homo sapiens, SK-BR-3, Table 18, modified furanose or pyranose noviose replacements, read-out: IC50, SKBr3
[13] = Homo sapiens, MCF7, Table 18, modified furanose or pyranose noviose replacements, read-out: IC50, MCF7

| IC50 [1, 5] [µM] | IC50 [2, 6] [µM] | IC50 ([3]; Table 6, read-out: IC50 LnCaP) [µM] | IC50 [4, 7] [µM] | Structure (SMILES) | further results |
| --- | --- | --- | --- | --- | --- |
| 20.7 ± 0.4 | 20 ± 1 | 11.4 | 11.9 | CO[C@@H]1[C@@H](O)[C@@H](O)[C@H](Oc2c(OC(C)C)cc3cc(NC(=O)c4cc5ccccc5[nH]4)c(=O)oc3c2C)OC1(C)C [26k, N-(7-((2S,3R,4S,5R)-3,4-dihydroxy-5-methoxy-6,6-dimethyltetrahydro-2H-pyran-2-yloxy)-6-isopropoxy-8-methyl-2-oxo-2H-chromen-3-yl)-1H-indole-2-carboxamide] |  |
| 4.3 ± 3.4 | 4.3 ± 2.5 | > 100 | > 100 | CCc1c(O[C@@H]2OC(C)(C)[C@H](OC)[C@@H](O)[C@H]2O)ccc2cc(NC(=O)c3cc4ccccc4[nH]3)c(=O)oc12 [26p, N-(7-((2R,3R,4S,5R)-3,4-dihydroxy-5-methoxy-6,6-dimethyltetrahydro-2H-pyran-2-yloxy)-8-ethyl-2-oxo-2H-chromen-3-yl)-1H-indole-2-carboxamide] | fold less active than the 8-methyl derivative ([2]; MCF-7 cells): 7 fold |
| 28.6 ± 1.1 | 41.7 ± 14 | 1.6 ± 0.3 | 1.8 ± 0.6 | CCc1c(O[C@@H]2OC(C)(C)[C@H](OC)[C@@H](O)[C@H]2O)ccc2cc(NC(=O)c3ccc(OC)c(-c4cccc(OC)c4)c3)c(=O)oc12 [26h, N-(7-((2R,3R,4S,5R)-3,4-dihydroxy-5-methoxy-6,6-dimethyltetrahydro-2H-pyran-2-yloxy)-8-ethyl-2-oxo-2H-chromen-3-yl)-3′,6-dimethoxybiphenyl-3-carboxamide] | fold increased activity versus the 8-methyl derivative ([4]; PC-3 cells): 10 fold |
| 9.7 ± 1 | > 100 | > 100 | > 100 | COc1c(O[C@@H]2OC(C)(C)[C@H](OC)[C@@H](O)[C@H]2O)ccc2cc(NC(=O)c3cc4ccccc4[nH]3)c(=O)oc12 [26o, N-(7-((2S,3R,4S,5R)-3,4-dihydroxy-5-methoxy-6,6-dimethyltetrahydro-2H-pyran-2-yloxy)-8-methoxy-2-oxo-2H-chromen-3-yl)-1H-indole-2-carboxamide] |  |
| 17.3 ± 3.4 | > 100 | 1 ± 0.1 | > 100 | COc1cccc(-c2cc(C(=O)Nc3cc4ccc(O[C@@H]5OC(C)(C)[C@H](OC)[C@@H](O)[C@H]5O)c(-c5ccccc5)c4oc3=O)ccc2OC)c1 [26f, N-(7-((2R,3R,4S,5R)-3,4-dihydroxy-5-methoxy-6,6-dimethyltetrahydro-2H-pyran-2-yloxy)-2-oxo-8-phenyl-2H-chromen-3-yl)-3′,6-dimethoxybiphenyl-3-carboxamide] |  |
| > 100 | > 100 | 49.7 ± 25 | > 100 | COc1cccc(-c2cc(C(=O)Nc3cc4ccc(O[C@@H]5OC(C)(C)[C@H](OC)[C@@H](O)[C@H]5O)c(Cc5ccccc5)c4oc3=O)ccc2OC)c1 [26e, N-(8-benzyl-7-((2R,3R,4S,5R)-3,4-dihydroxy-5-methoxy-6,6-dimethyltetrahydro-2H-pyran-2-yloxy)-2-oxo-2H-chromen-3-yl)-3′,6-dimethoxybiphenyl-3-carboxamide] |  |
|  |  |  |  | COc1cccc(-c2cc(C(=O)Nc3cnc4cc(O[C@@H]5OC(C)(C)[C@H](OC)[C@@H](O)[C@H]5O)ccc4c3)ccc2OC)c1 [42b, N-(7-((2R,3R,4S,5R)-3,4-Dihydroxy-5-methoxy-6,6-dimethyl-tetrahydro-2H-pyran-2-yloxy)quinolin-3-yl)-4-methoxy-3-(3-methoxyphenyl)-benzamide] | IC50 [1, 8]: 16.5 ± 6.2 µM; IC50 [2, 9]: 13.1 ± 4.1 µM; IC50 [3, 10]: 14.2 ± 0.4 µM; IC50 [4, 11]: 17.6 ± 4.6 µM |
|  |  |  |  | COc1cccc(-c2cc(C(=O)Nc3ccc4cc(O[C@@H]5OC(C)(C)[C@H](OC)[C@@H](O)[C@H]5O)ccc4c3)ccc2OC)c1 [42d, N-(6-((2R,3R,4S,5R)-3,4-Dihydroxy-5-methoxy-6,6-dimethyl-tetrahydro-2H-pyran-2-yloxy)naphthalen-2-yl)-4-methoxy-3-(3-methoxyphenyl)-benzamide] | IC50 [1, 8]: 38.9 ± 2.4 µM; IC50 [2, 9]: 46.4 ± 5.3 µM; IC50 [3, 10]: 19.6 ± 1.6 µM; IC50 [4, 11]: 10.9 ± 0.7 µM |
|  |  |  |  | COc1ccc(CN(C(=O)c2ccc(OC)c(-c3cccc(OC)c3)c2)c2ccc3cc(O[C@@H]4OC(C)(C)[C@H](OC)[C@@H](O)[C@H]4O)ccc3c2)cc1 [42c, N-(4-Methoxybenzyl)-N-(6-((2R,3R,4S,5R)-3,4-dihydroxy-5-methoxy-6,6-dimethyl-tetrahydro-2H-pyran-2-yloxy)naphthalen-2-yl)-4-methoxy-3-(3-methoxyphenyl)-benzamide] | IC50 [1, 8]: > 100 µM; IC50 [2, 9]: > 100 µM; IC50 [3, 10]: > 100 µM; IC50 [4, 11]: > 100 µM |
| > 100 | > 100 | 3 ± 0.6 | 5.6 ± 5.7 | CCCOc1cc2cc(NC(=O)c3ccc(OC)c(-c4cccc(OC)c4)c3)c(=O)oc2c(C)c1O[C@@H]1OC(C)(C)[C@H](OC)[C@@H](O)[C@H]1O [26b, N-(7-((2S,3R,4S,5R)-3,4-dihydroxy-5-methoxy-6,6-dimethyltetrahydro-2H-pyran-2-yloxy)-8-methyl-2-oxo-6-propoxy-2H-chromen-3-yl)-3′,6-dimethoxybiphenyl-3-carboxamide] | fold increase in anti-proliferation activity versus the 6-H derivative ([4]; PC-3 cells): 10 fold |
|  |  |  |  | COc1cccc(-c2cc(C(=O)Nc3cc4ccc(OCc5cccnc5)c(C)c4oc3=O)ccc2OC)c1 [3′,6-dimethoxy-N-(8-methyl-2-oxo-7-(pyridin-3-ylmethoxy)-2H-chromen-3-yl)-[1,1′-biphenyl]-3-carboxamide] | IC50 ([4]; PC-3, 24 hr., read-out: IC50): 3.8 µM |
|  |  |  |  | CC(=O)Oc1ccc(C(=O)Nc2cc3ccc(OCCCN(C)C)c(C)c3oc2=O)cc1CC=C(C)C [29f, KU-406, 4-(7-(3-(Dimethylamino)propoxy)-8-methyl-2-oxo-2H-chromen-3-ylcarbamoyl)-2-(3-methylbut-2-enyl)phenyl acetate] | IC50 ([1]; Table 19, 7-oxyalkylamino and 7-oxypiperidinyl analogues, read-out: IC50, SKBr3): 1.18 ± 0.03 µM; IC50 ([2]; Table 19, 7-oxyalkylamino and 7-oxypiperidinyl analogues, read-out: IC50, MCF-7): 0.46 ± 0.19 µM |
|  |  |  |  | CC(C)=CCc1cc(C(=O)Nc2cc3ccc(OC4CCN(C)CC4)c(C)c3oc2=O)ccc1OCCCN(C)C [KU-457] | IC50 ([1]; Homo sapiens, SK-BR-3, Table 19, 7-oxyalkylamino and 7-oxypiperidinyl analogues, read-out: IC50, SKBr3): 0.35 ± 0.08 µM; IC50 ([2]; Homo sapiens, MCF7, Table 19, 7-oxyalkylamino and 7-oxypiperidinyl analogues, read-out: IC50, MCF-7): 0.09 µM |
|  |  |  |  | CC(C)=CCc1cc(C(=O)Nc2cc3ccc(O[C@H]4C[C@H](O)CCO4)c(C)c3oc2=O)ccc1O [18a, KU-429, 4-Hydroxy-N-(7-((2S,4R)-4-hydroxytetrahydro-2H-pyran-2-yloxy)-8-methyl-2-oxo-2H-chromen-3-yl)-3-(3-methylbut-2-enyl)benzamide] | IC50 [1, 12]: 5.07 ± 0.23 µM; IC50 [2, 13]: 1.34 ± 0.18 µM |
|  |  |  |  | CC(C)=CCc1cc(C(=O)Nc2cc3ccc(O[C@H]4OCCC[C@H]4O)c(C)c3oc2=O)ccc1O [17a, KU-427, 4-Hydroxy-N-(7-((2R,3R)-3-hydroxytetrahydro-2H-pyran-2-yloxy)-8-methyl-2-oxo-2H-chromen-3-yl)-3-(3-methylbut-2-enyl)benzamide] | IC50 [1, 12]: 7.87 ± 0.04 µM; IC50 [2, 13]: 6.45 ± 0.13 µM |
